Test results as given in patent US20060025419A1, “Imidazoquinoxaline compound for the treatment of melanoma” (priority 2004, published 2006).

What was measured:
Hs 294T cells = assay: Growth of cultured melanoma cells, hemocytometer counting; assay type: cell-based, human
Source text: A super-repressor form of human IκBα (S32, 36A) resistant to degradation and mutant IKKβ […]) was kindly provided by Javier […] Cancer Center, University of California-San Diego School of Medicine). Antibodies to IKKα (H-744), IKKβ (H-470), Bcl-2, Bax and AIF were purchased from Santa Cruz Biotechnology, Inc. (Santa Cruz, Calif.). […] N-acetyl-L-cysteine (NAC) and Tiron were from Sigma-Aldrich (St. Louis, Mo.). Normal human epidermal melanocytes (NHEM) were provided by the Skin Disease Research Center in Vanderbilt University School of Medicine. NHEM were cultured in 154 medium with 1× human melanocyte growth supplement (Cascade Biologicals, Inc.). The melanoma cell lines, Sk Mel5, A375 and Hs294T, originally established from human metastatic melanoma, were purchased from American Type Culture Collection and cultured in DMEM: Ham's F-12 medium containing 10% FBS, 2 mM of L-glutamine, 100 μM of MEM Non-Essential Amino Acids (Life Technologies, Inc.), and 1 mM of sodium pyruvate (Sigma Chemical Co.). Aberrant activation of NF-κB has been associated with carcinogenesis, and constitutively high IKK activity has been detected in many tumor types, including human melanoma (Yang & Richmond, 2001; […] et al., 2003; […] et al., 2003). IKK is a major regulator of the NF-κB pathway and therefore represents an attractive therapeutic target in advanced cancers. […] After three days of culture, the cell numbers were determined by hemocytometer counting (Table 1).

SK-Mel-5 tumors = assay: Melanoma tumor growth in nude mice; assay type: in vivo; conditions: 21 days
Method: FIGS. 1A-1E. […] After 72 h treatment, cells were photographed. […] 2×10^6 SK-Mel-5 melanoma cells were subcutaneously inoculated into nude mice (n=5 mice per group). […] Tumor size was measured using an electronic digital caliper at intervals of 4 days. Tumor volume was calculated and statistically analyzed.
Animal experimentation was undertaken according to protocols approved by the Institutional of Animal Care and Use Committee at Vanderbilt University. […] Tumor size was measured with an electronic digital caliper. Tumor volume was calculated by width^2×length×0.52 and expressed as mean±SD mm^3.

A375 tumors = assay: Melanoma tumor growth in nude mice; assay type: in vivo; conditions: 75 mg/kg orally once daily, 21 days, vs vehicle
[1] = Body weight and tolerability in treated tumor-bearing mice; assay type: in vivo
IKK = target: T1, IKK (Homo sapiens, UniProt O14920+O15111); assay: Cell-free IKK kinase assay with washing (reversibility); assay type: biochemical; conditions: immunopurified IKK, 10 μM, 20 min, washed three times
T1 construct: Equal aliquots of cytoplasmic IKK proteins were immunoprecipitated with anti-IKKα/β antibodies; endogenous in cells; host or cells: SK-Mel-5 human melanoma cells, cytoplasmic extract, immunoprecipitated on Protein A/G agarose beads
T1 sequence (O14920 whole entry): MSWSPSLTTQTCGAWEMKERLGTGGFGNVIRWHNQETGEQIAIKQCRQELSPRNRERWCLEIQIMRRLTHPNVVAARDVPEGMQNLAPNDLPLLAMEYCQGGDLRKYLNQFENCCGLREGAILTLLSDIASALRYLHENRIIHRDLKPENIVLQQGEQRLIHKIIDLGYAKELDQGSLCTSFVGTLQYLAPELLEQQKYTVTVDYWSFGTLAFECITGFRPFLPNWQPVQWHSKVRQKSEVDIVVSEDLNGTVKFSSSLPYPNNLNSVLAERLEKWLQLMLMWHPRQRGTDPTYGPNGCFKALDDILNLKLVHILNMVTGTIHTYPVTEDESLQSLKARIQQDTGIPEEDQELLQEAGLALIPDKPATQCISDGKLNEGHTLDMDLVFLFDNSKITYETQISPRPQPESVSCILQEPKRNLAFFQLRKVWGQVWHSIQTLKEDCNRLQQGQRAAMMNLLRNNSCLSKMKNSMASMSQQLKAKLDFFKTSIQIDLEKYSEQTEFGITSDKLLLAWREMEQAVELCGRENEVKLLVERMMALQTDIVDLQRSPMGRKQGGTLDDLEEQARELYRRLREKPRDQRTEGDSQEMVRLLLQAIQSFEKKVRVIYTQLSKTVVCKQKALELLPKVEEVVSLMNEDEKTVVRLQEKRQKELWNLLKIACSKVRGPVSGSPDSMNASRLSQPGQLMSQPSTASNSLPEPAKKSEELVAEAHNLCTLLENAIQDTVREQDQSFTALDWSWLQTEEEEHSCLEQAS
T1 sequence (O15111 whole entry): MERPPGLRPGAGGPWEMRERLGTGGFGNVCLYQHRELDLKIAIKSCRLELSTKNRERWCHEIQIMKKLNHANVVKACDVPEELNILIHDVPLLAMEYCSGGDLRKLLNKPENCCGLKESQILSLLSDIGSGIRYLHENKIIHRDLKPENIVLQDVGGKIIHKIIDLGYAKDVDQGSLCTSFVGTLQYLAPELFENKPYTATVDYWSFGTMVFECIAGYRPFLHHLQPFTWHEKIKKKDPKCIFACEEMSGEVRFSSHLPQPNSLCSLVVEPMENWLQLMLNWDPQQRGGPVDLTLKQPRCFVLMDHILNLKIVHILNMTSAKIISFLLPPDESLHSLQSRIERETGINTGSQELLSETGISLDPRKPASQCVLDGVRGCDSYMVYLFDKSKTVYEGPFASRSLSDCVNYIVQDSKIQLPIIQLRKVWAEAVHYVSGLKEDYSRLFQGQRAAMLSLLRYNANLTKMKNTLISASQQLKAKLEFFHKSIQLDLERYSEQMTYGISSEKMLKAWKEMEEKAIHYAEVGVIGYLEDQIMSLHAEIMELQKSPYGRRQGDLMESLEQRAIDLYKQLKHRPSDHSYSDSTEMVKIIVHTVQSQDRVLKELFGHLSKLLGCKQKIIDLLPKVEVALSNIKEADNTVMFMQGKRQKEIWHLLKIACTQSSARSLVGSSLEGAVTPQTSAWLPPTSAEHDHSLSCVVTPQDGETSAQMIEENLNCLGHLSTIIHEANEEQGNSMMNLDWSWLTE
T1 sequence (Q9Y6K9 whole entry partner): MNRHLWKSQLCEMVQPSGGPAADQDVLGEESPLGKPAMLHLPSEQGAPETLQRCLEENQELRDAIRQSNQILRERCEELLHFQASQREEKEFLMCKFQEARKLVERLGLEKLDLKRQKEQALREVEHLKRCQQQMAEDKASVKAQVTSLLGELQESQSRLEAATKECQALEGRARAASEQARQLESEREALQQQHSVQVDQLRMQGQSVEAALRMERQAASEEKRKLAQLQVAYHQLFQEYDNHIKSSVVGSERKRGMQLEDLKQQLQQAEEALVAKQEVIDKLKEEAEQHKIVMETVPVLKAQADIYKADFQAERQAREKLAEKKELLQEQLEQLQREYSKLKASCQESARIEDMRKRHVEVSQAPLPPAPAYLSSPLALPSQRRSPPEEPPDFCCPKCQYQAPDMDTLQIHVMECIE
Method: To analyze the IKK activity, cytoplasmic extracts were prepared from cells cultured for 24 h in serum-free medium. Cells were mechanically released from tissue culture plates by scraping in cold PBS according to standard protocols. Cells were collected by centrifugation (800×g), and then resuspended in lysis buffer [10 mM HEPES (pH 7.9), 10 mM KCl, 0.1 mM EDTA, 0.1 mM EGTA, 0.1% NP40, 1 mM DTT, and 0.5 mM phenylmethylsulfonyl fluoride] with Complete Protein Inhibitors (Roche). 400 μg aliquots of cytoplasmic extracts were incubated with 1 μg each of IKKα and IKKβ polyclonal antibodies (Santa Cruz Biotechnology) and 60 μg aliquots of Protein A/G agarose-conjugated beads for 4 h at 4° C. […] The reaction mixtures were resolved by SDS-PAGE, transferred to nitrocellulose membrane, and phosphorylated IκB was detected by autoradiography.
Equal aliquots of cytoplasmic IKK proteins were immunoprecipitated with anti-IKKα/β antibodies and IKK activity was determined in an in vitro kinase assay using recombinant IκBα protein as a substrate for IκB kinase. The IKK activity was determined by autoradiography.

CXCL1 = CXCL1 ELISA of melanoma cell culture medium; assay type: cell-based, human; conditions: SK-Mel-5 supernatant, 14 h
Method: FIGS. 2A-2D. […] SK-Mel-5 cells were plated in 6-well plates (1.5×10^5 cells per well) and then cotransfected with 1 μg of HIV long terminal repeat NF-κB-luciferase vector and β-galactosidase vector DNA using Lipofectamine Plus reagent. Twenty-four hours after transfection, cells in duplicate plates were treated with 0, 0.1, 1 and 10 μM of BMS-345541in DMSO and incubated for an additional 36 h. Cell extract was prepared and luciferase activity was detected. Luciferase activity was normalized to β-galactosidase activity. […] ATP. The [γ-^32P]-labeled IκBα protein was visualized by autoradiography. […] The supernatants from B were cleared by centrifugation, or (FIG. 2D) sera were collected from mice, and subjected to ELISA assay for CXCL1 according to the manufacture's protocol. Data shown are from a representative data set from two experiments performed in duplicate (total n=4 for each point). For ELISA; the mean value is representative of serum samples from five mice.
To quantify the CXCL1 expression levels in vivo and in vitro, serum was collected at the end of the experiments from mice bearing SK-Mel-5 melanoma tumors or from the cleared supernatants of melanoma cell culture medium. Briefly, 1.5×10^5 of SK-Mel-5 cells/well were seeded in six-well plates in duplicate in DMEM/F12 medium containing 10% FBS.

NF-κB/p65 = assay: Time-lapse microscopy of GFP-p65 translocation; assay type: cell-based, human; conditions: SK-Mel-5, 10 μM, 7 h observation
Method: SK-Mel-5 cells (2×10^5 ) were cultured in 25 cm^2 culture flasks (Corning Inc., Corning, N.Y.) and transfected with 0.5 μg of GFP-p65 expression vector DNA for 14 h. […] The expression and localization of EGFP-p65 in live cells was recorded using time-lapse video microscopy (FIGS. 3A). The cytosolic and nuclear green fluorescent density was quantified by the Openlab software program (FIGS. 3B).
To test this possibility, SK-Mel-5 cells were transfected with a GFP-p65 expression vector to monitor the nuclear translocation in living cells. […] Time-lapse video microscopy was used to follow the localization of GFP-p65 in live cells. Images were captured at one-hour intervals over a 7 h observation period. The cytosol versus nuclear green fluorescent density was quantified by the Openlab software program.

melanoma tumor = assay: H&E and TUNEL staining of melanoma tumor sections; assay type: in vivo, mice
Method: FIGS. 4A-4H. […] Paraffin-embedded tumor tissues were subjected to H&E staining (FIGS. 4C & D) and DeadEnd Fluorometric TUNEL-assay for detection of apoptosis (FIGS. 4E & F). The TUNEL-positive cells are visualized in green fluorescence in a red (Propidium Iodide) background by fluorescence microscopy. […] After 36 h incubation, cells were collected and fixed with 1% formaldehyde and 70% ice-cold ethanol. The apoptotic cells were examined using TUNEL-assay and analyzed by flow cytometry through measuring fluorescein-12-dUTP at 520 nm. The apoptotic rate is indicated in each box. Data shown are represented one of three independent experiments. […] Cells were fixed and stained with Propidium iodide. Cell fluorescence was measured by flow cytometry and the data were analyzed using DNA content histogram deconvolution software (Multicycle from Phoenix Flow Systems). […]
In melanoma, constitutive activation of NF-κB confers tumor survival capacity and escape from apoptosis (Richmond, 2002). […] Apoptotic cells were labeled using DeadEnd Fluorometric TUNEL reagent and analyzed by flow cytometry. […] Thirty-six hours after transfection, cells were collected, labeled with TUNEL reagent and analyzed by flow cytometry. […] Induction of DNA fragmentation, a hallmark of apoptosis, was evaluated by staining DNA with ethidium bromide followed by quantization by FACS analysis.

[2] = test system: 15 other kinases including JNK, or mitogen-activated protein kinase-activated protein kinase 2; conditions: cited from earlier work

## Cc1ccc2nc(NCCN)c3ncc(C)n3c2c1.Cl [BMS-345541, 4(2′-aminoethyl)amino-1,8-dimethylimidazo(1,2-a)quinoxaline]
Hs 294T cells; 0.1 μM
  cell number after three days of culture: 1.9 ± 0.15 10^5
Hs 294T cells; 1.0 μM
  cell number after three days of culture: 2.2 ± 0.42 10^5
Hs 294T cells; 10 μM
  cell number after three days of culture: 0.013 ± 0.01 10^5
Hs 294T cells; 100 μM
  cell number after three days of culture: 0 10^5
SK-Mel-5 tumors; 10, 25 and 75 mg/kg orally once daily
  SK-Mel-5 tumor growth (FIG. 1B): effectively inhibits SK-Mel-5 tumor growth in a dose-dependent manner
SK-Mel-5 tumors; SK-Mel-5 tumors, 75 mg/kg orally once daily, vs vehicle
  inhibition of tumor growth: 86±2.8%
A375 tumors
  inhibition of tumor growth: 69±11%
[1]; 10 mg/kg orally once daily
  average loss of body weight: 5%
[1]; 25 mg/kg orally once daily
  average loss of body weight: 9%
[1]; 75 mg/kg orally once daily
  average loss of body weight: 14%
[1]; oral, once daily, 21 days
  tolerability in mice: well tolerated
IKK
  reversibility of IKK inhibition by washing: reversed after the washing steps
CXCL1
  CXCL1 expression in melanoma cell cultures: suppressed in a concentration-dependent manner
NF-κB/p65
  GFP-p65 localization: consistently retained GFP-p65 in the cytoplasm
Melanoma tumor; 25 mg/kg daily
  nuclear apoptosis in tumor sections (H&E, TUNEL): obvious nuclear condensation and DNA fragment staining
Melanoma tumor; 75 mg/kg
  TUNEL staining of tumor sections: TUNEL staining appeared extensively over the tumor sections
[2]
  effect on 15 other kinases: failing to affect
